According to patent US20200260700A1, “Transgenic Insect and Use of Same in Methods for Testing Natural or Synthetic Substances” (Robert Bosch Gesellschaft für Medizinische Forschung mbH, priority 2017, published 2020):

Molecular target: human SLC22A1/OCT1 protein (Homo sapiens, UniProt O15245)
Conditions: ethidium bromide and cimetidine simultaneously injected into ventral side of Drosophila melanogaster embryos expressing OCT1/SLC22A1 reference sequence in salivary glands (GAL4/UAS); confocal laser scanning microscopy
Procedure: The salivary glands are moreover characterized by the tissue-specific expression of GFP. These living embryos were injected with 0.5 μM ethidium bromide. The accumulation of ethidium bromide in the salivary glands was visualized by confocal laser scanning microscopy.
The salivary glands are moreover characterized by the tissue-specific expression of GFP. Ethidium bromide and cimetidine were simultaneously injected into the ventral side of the embryos.

Chain of human SLC22A1/OCT1 protein (O15245 whole entry, the tested form may be a part): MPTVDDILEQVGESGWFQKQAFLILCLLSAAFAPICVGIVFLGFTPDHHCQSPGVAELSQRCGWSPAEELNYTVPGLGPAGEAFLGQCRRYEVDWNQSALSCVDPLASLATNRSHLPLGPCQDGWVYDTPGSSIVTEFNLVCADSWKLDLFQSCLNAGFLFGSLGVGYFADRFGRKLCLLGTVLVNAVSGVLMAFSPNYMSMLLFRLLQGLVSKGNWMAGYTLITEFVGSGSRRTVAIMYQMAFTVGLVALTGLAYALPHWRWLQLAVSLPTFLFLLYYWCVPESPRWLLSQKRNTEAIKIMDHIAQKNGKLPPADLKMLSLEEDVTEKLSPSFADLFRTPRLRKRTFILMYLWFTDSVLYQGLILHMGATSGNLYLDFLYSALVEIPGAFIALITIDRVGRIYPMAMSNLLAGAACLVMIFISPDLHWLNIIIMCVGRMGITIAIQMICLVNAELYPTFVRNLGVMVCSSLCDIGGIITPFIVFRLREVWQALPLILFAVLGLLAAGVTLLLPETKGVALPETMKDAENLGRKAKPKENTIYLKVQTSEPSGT

CN/C(=N/CCSCc1nc[nH]c1C)NC#N [cimetidine]
inhibition of the uptake of ethidium bromide: concentration-dependent
